The subject of one assay is S. aureus ATCC 29213. As to the kind of experiment: Broth microdilution MIC assay, S. aureus. It counts as cell-based. To be noted: Staphylococcus aureus, ATCC29213; broth microdilution, 16-20 hours at 37° C.; read-out: S. aureus 29213 MIC. The protocol: (§1) To determine the ability of test compounds to potentiate the inhibition of the growth of bacterial strains, classic cell based broth microdilution MIC assays were employed. MIC assays are performed according to CLSI methods except where otherwise noted (CLSI, 2011 and CLSI, 2009). The reference strain S. aureus ATCC 29213 and the hyper-permeable E. coli 901C were used to determine the ability of the PBP compounds to inhibit bacterial growth. Briefly, cryo-preserved bacterial cultures of clinical strains are streaked for isolation on appropriate agar medium, in this case Mueller Hinton II agar. Following incubation to allow formation of colonies these plates are sealed with parafilm and stored refrigerated for up to two weeks. For preparation of assay inocula and to ensure low variability, at least 5 colonies are picked from the agar plates with an inoculating loop and aseptically transferred to a culture tube containing 3 mL of Mueller-Hinton Broth (supplemented with divalent cations to required levels based on Manufacturers' certification). The broth culture is grown for 3-5 hours at 37° C. with shaking at 200 rpm. Meanwhile, 2-fold serial dilutions of test compounds are conducted in a 96 well plate with a final volume of 75 μL per well at 2-fold the final desired concentration. After the dilution plates are set up the growing cultures are then diluted in a cuvette containing MH II broth and the optical density is measured at 600 nm. Inocula are diluted such that 75 μL of this culture in Mueller-Hinton Broth results in a starting bacterial concentration of 5×10^5 CFU/mL when added to the dilution plates. The plates are incubated 16-20 hours at 37° C. The MIC is read visually as the lowest concentration well with no bacterial growth.
Background: In broth dilution the organism is exposed to a series of concentrations in liquid medium.

Assay [1] has as its system hyper-permeable E. coli 901C. As to the kind of experiment: Broth microdilution MIC assay, hyper-permeable E. coli. It counts as cell-based. To be noted: Escherichia coli, read-out: E. coli 901C MIC. The method, then:
as §1

The term MIC denotes the lowest concentration found to suppress growth.

A value given as a limit tells only on which side of the number the result lay.

`Nc1nc(/C(=N/OCC(=O)O)C(=O)N[C@H]2Cc3cccc(C(=O)O)c3OB2O)cs1` [Example 18, (R,Z)-3-(2-(2-aminothiazol-4-yl)-2-((carboxymethoxy)imino)acetamido)-2-hydroxy-3,4-dihydro-2H-benzo[e][1,2]oxaborinine-8-carboxylic Acid]: the minimal inhibitory concentration (MIC) in the assay on S. aureus ATCC 29213 was over 128 µg/mL; in assay [1], under 64 µg/mL.
In the case of `Nc1nc(/C(=N/O)C(=O)N[C@H]2Cc3cccc(C(=O)O)c3OB2O)ns1` [Example 19, (R,Z)-3-(2-(5-amino-1,2,4-thiadiazol-3-yl)-2-(hydroxyimino)acetamido)-2-hydroxy-3,4-dihydro-2H-benzo[e][1,2]oxaborinine-8-carboxylic Acid], the figures for the MIC (in the assay with S. aureus ATCC 29213; in assay [1]) were 64 to 128 µg/mL and over 128 µg/mL, respectively.
For the compound `Nc1nc(/C(=N/O)C(=O)N[C@H]2Cc3ccc(O)c(C(=O)O)c3OB2O)cs1` [Example 21, (R,Z)-3-(2-(2-aminothiazol-4-yl)-2-(hydroxyimino)acetamido)-2,7-dihydroxy-3,4-dihydro-2H-benzo[e][1,2]oxaborinine-8-carboxylic Acid], the MIC is 64 to 128 µg/mL in the assay on S. aureus ATCC 29213 and over 128 µg/mL in assay [1].
On to `CNc1nc(/C(=N/O)C(=O)N(C)[C@H]2Cc3cccc(C(=O)O)c3OB2O)cs1` [Example 22, (R,Z)-2-hydroxy-3-(2-(hydroxyimino)-N-methyl-2-(2-(methylamino)thiazol-4-yl)acetamido)-3,4-dihydro-2H-benzo[e][1,2]oxaborinine-8-carboxylic Acid], for which the MIC (in the assay with S. aureus ATCC 29213; in assay [1]) was over 128 µg/mL in each case.
Turning to `CNc1nc(/C(=N/OCc2ccccc2)C(=O)N(C)[C@H]2Cc3cccc(C(=O)O)c3OB2O)cs1` [Example 23, (R,Z)-3-(2-((benzyloxy)imino)-N-methyl-2-(2-(methylamino)thiazol-4-yl)acetamido)-2-hydroxy-3,4-dihydro-2H-benzo[e][1,2]oxaborinine-8-carboxylic Acid], the MIC (in the assay with S. aureus ATCC 29213; in assay [1]) was over 128 µg/mL each time.
On to `Nc1nc(/C(=N/O)C(=O)N[C@H]2Cc3ccc(C=O)c(C(=O)O)c3OB2O)cs1` [Example 24, (R,Z)-3-(2-(2-aminothiazol-4-yl)-2-(hydroxyimino)acetamido)-7-formyl-2-hydroxy-3,4-dihydro-2H-benzo[e][1,2]oxaborinine-8-carboxylic Acid], for which the results for the MIC (with S. aureus ATCC 29213; in assay [1]) were 64 to 128 µg/mL and over 128 µg/mL, respectively.
In the same order, the values of `Nc1nc(/C(=N/O)C(=O)N[C@H]2Cc3ccc(CN4CCCC4)c(C(=O)O)c3OB2O)cs1` [Example 25, (R,Z)-3-(2-(2-aminothiazol-4-yl)-2-(hydroxyimino)acetamido)-2-hydroxy-7-(pyrrolidin-1-ylmethyl)-3,4-dihydro-2H-benzo[e][1,2]oxaborinine-8-carboxylic Acid] are under 64 µg/mL and over 128 µg/mL.
As to `Nc1nc(/C(=N/O)C(=O)N[C@H]2Cc3ccc(/C=C/C(=O)O)c(C(=O)O)c3OB2O)cs1` [Example 27, (R)-3-((Z)-2-(2-aminothiazol-4-yl)-2-(hydroxyimino)acetamido)-7-((E)-2-carboxyvinyl)-2-hydroxy-3,4-dihydro-2H-benzo[e][1,2]oxaborinine-8-carboxylic Acid], the MIC with S. aureus ATCC 29213 is over 128 µg/mL; in assay [1], 64 to 128 µg/mL.
For `Nc1nc(/C(=N/O)C(=O)N[C@H]2Cc3ccc(CCC(=O)O)c(C(=O)O)c3OB2O)cs1` [Example 28, (R,Z)-3-(2-(2-aminothiazol-4-yl)-2-(hydroxyimino)acetamido)-7-(2-carboxyethyl)-2-hydroxy-3,4-dihydro-2H-benzo[e][1,2]oxaborinine-8-carboxylic Acid], the MIC (with S. aureus ATCC 29213; in assay [1]) was over 128 µg/mL in each case.
On to `Nc1nc(/C(=N/O)C(=O)N[C@H]2Cc3cc(F)cc(C(=O)O)c3OB2O)cs1` [Example 32, (R,Z)-3-(2-(2-aminothiazol-4-yl)-2-(hydroxyimino)acetamido)-6-fluoro-2-hydroxy-3,4-dihydro-2H-benzo[e][1,2]oxaborinine-8-carboxylic Acid], for which the MIC (in the assay with S. aureus ATCC 29213; in assay [1]) was under 64 µg/mL throughout.
`Nc1nc(/C(=N/O)C(=O)N[C@H]2Cc3cc(CN4CCCC4)cc(C(=O)O)c3OB2O)cs1` [Example 33, (R,Z)-3-(2-(2-aminothiazol-4-yl)-2-(hydroxyimino)acetamido)-2-hydroxy-6-(pyrrolidin-1-ylmethyl)-3,4-dihydro-2H-benzo[e][1,2]oxaborinine-8-carboxylic Acid]: the MIC was under 64 µg/mL in the assay with S. aureus ATCC 29213 and over 128 µg/mL in assay [1].
`Nc1nc(/C(=N/O)C(=O)N[C@H]2Cc3ccc(F)c(C(=O)O)c3OB2O)cs1` [Example 39, (R,Z)-3-(2-(2-aminothiazol-4-yl)-2-(hydroxyimino)acetamido)-7-fluoro-2-hydroxy-3,4-dihydro-2H-benzo[e][1,2]oxaborinine-8-carboxylic Acid]: the MIC (in the assay with S. aureus ATCC 29213; in assay [1]) was under 64 µg/mL throughout.
Consider `Nc1nc(/C(=N/O)C(=O)N[C@H]2Cc3c(F)c(F)cc(C(=O)O)c3OB2O)cs1` [Example 40, (R,Z)-3-(2-(2-aminothiazol-4-yl)-2-(hydroxyimino)acetamido)-5,6-difluoro-2-hydroxy-3,4-dihydro-2H-benzo[e][1,2]oxaborinine-8-carboxylic Acid], for which the MIC in the assay with S. aureus ATCC 29213 was under 64 µg/mL; in assay [1], over 128 µg/mL.
On to `Nc1nc(/C(=N/O)C(=O)N[C@H]2Cc3cc(O)cc(C(=O)O)c3OB2O)cs1` [Example 43, (R,Z)-3-(2-(2-aminothiazol-4-yl)-2-(hydroxyimino)acetamido)-2,6-dihydroxy-3,4-dihydro-2H-benzo[e][1,2]oxaborinine-8-carboxylic Acid], for which the MIC is under 64 µg/mL in the assay with S. aureus ATCC 29213 and 64 to 128 µg/mL in assay [1].
For `Nc1nc(/C(=N/O)C(=O)N[C@H]2Cc3cc(OC(F)(F)F)cc(C(=O)O)c3OB2O)cs1` [Example 45, (R,Z)-3-(2-(2-aminothiazol-4-yl)-2-(hydroxyimino)acetamido)-2-hydroxy-6-(trifluoromethoxy)-3,4-dihydro-2H-benzo[e][1,2]oxaborinine-8-carboxylic Acid] the same measures were under 64 µg/mL and under 64 µg/mL.
For `Nc1nc(/C(=N/OC2CCNCC2)C(=O)N[C@H]2Cc3cccc(C(=O)O)c3OB2O)cs1` [Example 51, (R,Z)-3-(2-(2-aminothiazol-4-yl)-2-((piperidin-4-yloxy)imino)acetamido)-2-hydroxy-3,4-dihydro-2H-benzo[e][1,2]oxaborinine-8-carboxylic Acid] the same measures were over 128 µg/mL and 64 to 128 µg/mL.
As to `Nc1nc(/C(=N/OC2CNC2)C(=O)N[C@H]2Cc3cccc(C(=O)O)c3OB2O)cs1` [Example 53, (R,Z)-3-(2-(2-aminothiazol-4-yl)-2-((azetidin-3-yloxy)imino)acetamido)-2-hydroxy-3,4-dihydro-2H-benzo[e][1,2]oxaborinine-8-carboxylic Acid], the results for the MIC (with S. aureus ATCC 29213; in assay [1]) were over 128 µg/mL and 64 to 128 µg/mL, respectively.
For `NCCNC(=O)CO/N=C(\C(=O)N[C@H]1Cc2cccc(C(=O)O)c2OB1O)c1csc(N)n1` [Example 54, (R,Z)-3-(2-((2-((2-aminoethyl)amino)-2-oxoethoxy)imino)-2-(2-aminothiazol-4-yl)acetamido)-2-hydroxy-3,4-dihydro-2H-benzo[e][1,2]oxaborinine-8-carboxylic Acid] the same measures were over 128 µg/mL and under 64 µg/mL.
In the case of `CC(C)(O/N=C(\C(=O)N[C@H]1Cc2cccc(C(=O)O)c2OB1O)c1csc(N)n1)C(=O)N[C@@H](CCC(=O)O)C(=O)O` [Example 77, (2-((((Z)-1-(2-aminothiazol-4-yl)-2-(((R)-8-carboxy-2-hydroxy-3,4-dihydro-2H-benzo[e][1,2]oxaborinin-3-yl)amino)-2-oxoethylidene)amino)oxy)-2-methylpropanoyl)-L-glutamic Acid], the MIC with S. aureus ATCC 29213 was over 128 µg/mL; in assay [1], under 64 µg/mL.
Take `COc1cc2c(c(C(=O)O)c1)OB(O)[C@@H](NC(=O)/C(=N\OC(C)(C)C(=O)O)c1csc(N)n1)C2` [Example 79, (R,Z)-3-(2-(2-aminothiazol-4-yl)-2-(((2-carboxypropan-2-yl)oxy)imino)acetamido)-2-hydroxy-6-methoxy-3,4-dihydro-2H-benzo[e][1,2]oxaborinine-8-carboxylic Acid]: the values for the MIC (in the assay with S. aureus ATCC 29213; in assay [1]) were over 128 µg/mL and under 64 µg/mL, respectively.
For `CC(C)(O/N=C(\C(=O)N[C@H]1Cc2cc(O)cc(C(=O)O)c2OB1O)c1csc(N)n1)C(=O)O` [Example 80, (R,Z)-3-(2-(2-aminothiazol-4-yl)-2-(((2-carboxypropan-2-yl)oxy)imino)acetamido)-2,6-dihydroxy-3,4-dihydro-2H-benzo[e][1,2]oxaborinine-8-carboxylic Acid], the MIC in the assay on S. aureus ATCC 29213 was over 128 µg/mL; in assay [1], under 64 µg/mL.
For the compound `COc1cc2c(c(C(=O)O)c1)OB(O)[C@@H](NC(=O)/C(=N\OC(C)(C)C(N)=O)c1csc(N)n1)C2` [Example 81, (R,Z)-3-(2-(((1-amino-2-methyl-1-oxopropan-2-yl)oxy)imino)-2-(2-aminothiazol-4-yl)acetamido)-2-hydroxy-6-methoxy-3,4-dihydro-2H-benzo[e][1,2]oxaborinine-8-carboxylic Acid], the MIC is over 128 µg/mL with S. aureus ATCC 29213 and under 64 µg/mL in assay [1].

Source of the values: patent US11267826B2, “Penicillin-binding protein inhibitors” (priority 2017, dated 2022).
